Test results published in PubChem BioAssay (NCI).
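Grown in 96-well plates, cells were treated for 48 hours with each compound at five concentrations. Insufficient inhibition: endpoint recorded as highest concentration tested. Here, GI50 denotes the concentration required for 50% inhibition of growth. TGI denotes the concentration required for complete inhibition of growth.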

How the values were obtained:
Assay in all cases: inhibition of tumour cell growth, NCI panel, 48 h
[1] = test system: COLO 205 colon
[2] = test system: BT-549 breast
[3] = test system: K-562 leukemia
[4] = test system: DU-145 prostate
[5] = test system: MDA-MB-231 breast
[6] = test system: HOP-92 NSCLC
[7] = test system: SF-295 CNS
[8] = test system: NCI-H460 lung
[9] = test system: MCF7 breast
[10] = test system: UACC-257 melanoma
[11] = test system: RXF 393 renal
[12] = test system: HS 578T breast
[13] = test system: MOLT-4 leukemia
[14] = test system: OVCAR-5 ovarian
[15] = test system: 786-0 renal
[16] = test system: MDA-MB-435
[17] = test system: HOP-62 NSCLC
[18] = test system: OVCAR-3 ovarian
[19] = test system: HT29 colon
[20] = test system: SF-539 CNS
[21] = test system: RPMI-8226 leukemia
[22] = test system: NCI/ADR-RES ovarian
[23] = test system: A549 NSCLC
[24] = test system: SK-MEL-2 melanoma
[25] = test system: SNB-75 CNS
[26] = test system: OVCAR-4 ovarian
[27] = test system: A498 renal
[28] = test system: ACHN renal
[29] = test system: HCT-15 colon
[30] = test system: U251 CNS
[31] = test system: SR leukemia
[32] = test system: NCI-H226 lung
[33] = test system: LOX IMVI melanoma
[34] = test system: KM12 colon
[35] = test system: SK-OV-3 ovarian
[36] = test system: M14 melanoma
[37] = test system: SF-268 CNS
[38] = test system: SNB-19 CNS
[39] = test system: T-47D breast
[40] = test system: SN12C renal
[41] = test system: CCRF-CEM leukemia
[42] = test system: CAKI-1 renal
[43] = test system: NCI-H522 lung
[44] = test system: MALME-3M melanoma
[45] = test system: OVCAR-8 ovarian
[46] = test system: HCC-2998 colon
[47] = test system: UACC-62 melanoma
[48] = test system: NCI-H23 lung
[49] = test system: SK-MEL-5 melanoma
[50] = test system: PC-3 prostate
[51] = test system: TK-10 renal
[52] = test system: IGROV1 ovarian
[53] = test system: SK-MEL-28 melanoma
[54] = test system: HCT-116 colon
[55] = test system: SW-620 colon
[56] = test system: EKVX NSCLC
[57] = test system: UO-31 renal

CC(=O)c1ccc(Nc2nc(Nc3ccc(F)cc3)nc(Nc3ccc(F)cc3)n2)cc1
GI50 [1]: 5.61 µM | TGI [1]: 43.7 µM | GI50 [2]: 10.1 µM | TGI [2]: 31.5 µM | GI50 [3]: 5.7 µM | TGI [3]: > 100 µM | GI50 [4]: 14.8 µM | TGI [4]: 55.7 µM | GI50 [5]: 6.81 µM | TGI [5]: 42.8 µM | GI50 [6]: 5.64 µM | TGI [6]: 31.5 µM | GI50 [7]: 7.13 µM | TGI [7]: 24.2 µM | GI50 [8]: 8.65 µM | TGI [8]: > 100 µM | GI50 [9]: 4.12 µM | TGI [9]: 61.2 µM | GI50 [10]: 14.3 µM | TGI [10]: > 100 µM | GI50 [11]: 3.15 µM | TGI [11]: 11.5 µM | GI50 [12]: 4.85 µM | TGI [12]: 20.2 µM | GI50 [13]: 4.39 µM | TGI [13]: > 100 µM | GI50 [14]: 35.1 µM | TGI [14]: > 100 µM | GI50 [15]: 14.1 µM | TGI [15]: 32.5 µM | GI50 [16]: 3.24 µM | TGI [16]: > 100 µM | GI50 [17]: 13.7 µM | TGI [17]: 32.5 µM | GI50 [18]: 10.6 µM | TGI [18]: 33 µM | GI50 [19]: 5.79 µM | TGI [19]: > 100 µM | GI50 [20]: 3.07 µM | TGI [20]: 12.1 µM | GI50 [21]: 94.9 µM | TGI [21]: > 100 µM | GI50 [22]: 5.5 µM | TGI [22]: 54.1 µM | GI50 [23]: 5.81 µM | TGI [23]: 32.5 µM | GI50 [24]: 10.1 µM | TGI [24]: 40.3 µM | GI50 [25]: 5.62 µM | TGI [25]: 29.5 µM | GI50 [26]: 10.9 µM | TGI [26]: 41.3 µM | GI50 [27]: 4.69 µM | TGI [27]: 18.3 µM | GI50 [28]: 14.7 µM | TGI [28]: 45.1 µM | GI50 [29]: 8.49 µM | TGI [29]: > 100 µM | GI50 [30]: 11.7 µM | TGI [30]: 30.1 µM | GI50 [31]: 4.24 µM | TGI [31]: > 100 µM | GI50 [32]: 20.7 µM | TGI [32]: > 100 µM | GI50 [33]: 18.2 µM | TGI [33]: > 100 µM | GI50 [34]: 8.67 µM | TGI [34]: 97.9 µM | GI50 [35]: 10.5 µM | TGI [35]: 83.6 µM | GI50 [36]: 6.52 µM | TGI [36]: > 100 µM | GI50 [37]: 10.8 µM | TGI [37]: 46.6 µM | GI50 [38]: 16.4 µM | TGI [38]: 53.8 µM | GI50 [39]: 4.77 µM | TGI [39]: 65.2 µM | GI50 [40]: 23.6 µM | TGI [40]: > 100 µM | GI50 [41]: 3.77 µM | TGI [41]: > 100 µM | GI50 [42]: 9.02 µM | TGI [42]: 27.7 µM | GI50 [43]: 10.4 µM | TGI [43]: 41.3 µM | GI50 [44]: 6.73 µM | TGI [44]: 42.1 µM | GI50 [45]: 6.91 µM | TGI [45]: 24.8 µM | GI50 [46]: 9.95 µM | TGI [46]: > 100 µM | GI50 [47]: 28.9 µM | TGI [47]: > 100 µM | GI50 [48]: 35.7 µM | TGI [48]: > 100 µM | GI50 [49]: 7.07 µM | TGI [49]: 35.8 µM | GI50 [50]: 8.89 µM | TGI [50]: > 100 µM | GI50 [51]: 15.6 µM | TGI [51]: 42.2 µM | GI50 [52]: 9.49 µM | TGI [52]: 28.2 µM | GI50 [53]: 11 µM | TGI [53]: 45 µM | GI50 [54]: 12.7 µM | TGI [54]: > 100 µM | GI50 [55]: 13.4 µM | TGI [55]: 88 µM | GI50 [56]: 12.3 µM | TGI [56]: 57.8 µM | GI50 [57]: 7.68 µM | TGI [57]: 24.3 µM
